According to the NIST ThermoML archive (doi:10.1021/je200350a):

Assay: xn = mol fraction of the nth substance listed
Settings: 101 kPa, Liquid; for viscosity: Capillary tube (Ostwald / Ubbelohde) method

O=[N+]([O-])c1ccccc1 [nitrobenzene] + CC1CCCCC1
Settings | mass density, 293.15 K [kg/m3] | mass density, 298.15 K [kg/m3] | mass density, 303.15 K [kg/m3] | mass density, 308.15 K [kg/m3] | viscosity, 293.15 K [mPa·s] | viscosity, 298.15 K [mPa·s] | viscosity, 303.15 K [mPa·s] | viscosity, 308.15 K [mPa·s]
x1 = 0.1422 | 820.2 | 816.2 | 812.4 | 808.2 | 0.785 | 0.735 | 0.6901 | 0.649
x1 = 0.2103 | 845.2 | 840.8 | 837.4 | 832.3 | 0.8282 | 0.7723 | 0.7233 | 0.6777
x1 = 0.3412 | 900.9 | 897.5 | 894.2 | 891 | 0.9436 | 0.8765 | 0.8177 | 0.7653
x1 = 0.404 | 919.6 | 915.6 | 912.8 | 909 | 0.9971 | 0.9244 | 0.8618 | 0.8054
x1 = 0.5249 | 973.2 | 970.2 | 965 | 962.6 | 1.125 | 1.042 | 0.9677 | 0.9044
x1 = 0.6397 | 1027 | 1022.7 | 1019.6 | 1016 | 1.266 | 1.172 | 1.089 | 1.015
x1 = 0.7489 | 1075.7 | 1071.6 | 1067.8 | 1062.9 | 1.416 | 1.312 | 1.218 | 1.136
x1 = 0.853 | 1123.6 | 1119.2 | 1114.5 | 1111.5 | 1.613 | 1.484 | 1.371 | 1.272
x1 = 0.9031 | 1150.8 | 1146.3 | 1142 | 1137.5 | 1.718 | 1.58 | 1.46 | 1.354
